{"source": "patent US9790233B2", "about": "“Compositions and methods of modulating 15-PGDH activity” (CASE WESTERN RESERVE UNIVERSITY, priority 2012, dated 2017)", "key": {"[1]": {"test": "Survival after whole body irradiation", "format": "in vivo, C57BL/6J mice", "settings": "11 Gy"}, "[2]": {"system": "15-PGDH luciferase fusion construct in LS174T reporter cell line", "test": "15-PGDH-luciferase fusion gene reporter induction, LS174T cells", "format": "cell-based", "settings": "Homo sapiens"}, "15-PGDH protein": {"molecular_target": "15-PGDH protein (Homo sapiens (Human), UniProt P15428)", "sequence (P15428 whole entry)": "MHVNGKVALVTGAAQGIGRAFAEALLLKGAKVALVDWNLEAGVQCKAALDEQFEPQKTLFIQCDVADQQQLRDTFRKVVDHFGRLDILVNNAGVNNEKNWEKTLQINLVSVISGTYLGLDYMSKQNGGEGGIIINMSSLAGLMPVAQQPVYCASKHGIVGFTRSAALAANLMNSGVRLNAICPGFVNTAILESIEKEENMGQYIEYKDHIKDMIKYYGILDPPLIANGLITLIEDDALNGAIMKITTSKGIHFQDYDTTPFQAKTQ", "test": "Inhibition of enzymatic activity of recombinant 15-PGDH in vitro (tritium transfer from PGE2 or NADH fluorescence)", "format": "biochemical", "settings": "for inhibition at […]: read-out: Enzyme inhibition % ([…]), recombinant 15-PGDH, […] compound, Table 18; for IC50: recombinant 15-PGDH in vitro, read-out: Enzyme inhibition (IC50)"}, "[3]": {"system": "15-PGDH luciferase fusion construct in V9m reporter cell line", "test": "15-PGDH-luciferase fusion gene reporter induction, V9m cells", "format": "cell-based"}, "[4]": {"system": "15-PGDH luciferase fusion construct in Vaco503 reporter cell line", "test": "15-PGDH-luciferase fusion gene reporter induction, V503 cells", "format": "cell-based"}, "A549 cells": {"system": "A549 cells", "test": "PGE2 levels in the medium of IL1-beta stimulated A549 cells;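 as to all read-outs here: PGE2 in the collected culture medium quantified by enzyme immunoassay (ELISA), with data drawn from three independent experiments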", "format": "cell-based", "settings": "for Decrease PGE-2 (IL-1beta-A549, %): media of IL-1beta stimulated A549 cells; for rank of reduction in levels of PGE2 in the medium: FIG. 94"}, "[5]": {"settings": "read-out: Ls174T-SC1 reporter activity, % ([…]), […], Table 18, read-out: Ls174T-SC1 reporter activity, % (2.5 μM)"}, "[6]": {"settings": "read-out: Ls174T-SC1 reporter activity, % ([…]), […], Table 18, read-out: Ls174T-SC1 reporter activity, % (7.5 μM)"}, "[7]": {"settings": "read-out: Enzyme inhibition % (7.5 μM)"}, "[8]": {"settings": "read-out: V9M-SC3 Reporter activity ([…]) (%), […], Table 18, read-out: V9M-SC3 Reporter activity (2.5 μM) (%)"}, "[9]": {"settings": "read-out: V503-3H9-7 reporter activity, % ([…]), […], Table 18, read-out: V503-3H9-7 reporter activity, % (2.5 μM)"}, "[10]": {"settings": "read-out: V503-3H9-7 reporter activity, % ([…]), […], Table 18, read-out: V503-3H9-7 reporter activity, % (7.5 μM)"}, "[11]": {"settings": "read-out: Ls174T-SC1 reporter activity, % ([…]), LS174T reporter cells, […] compound, % induction of luciferase activity over basal level, read-out: Ls174T-SC1 reporter activity, % (2.5 μM)"}, "[12]": {"settings": "read-out: Ls174T-SC1 reporter activity, % ([…]), LS174T reporter cells, […] compound, % induction of luciferase activity over basal level, read-out: Ls174T-SC1 reporter activity, % (7.5 μM)"}, "[13]": {"settings": "read-out: V9M-SC3 Reporter activity ([…]) (%), V9m reporter cells, […] compound, % induction of luciferase activity over basal level, read-out: V9M-SC3 Reporter activity (2.5 μM) (%)"}, "[14]": {"settings": "read-out: V9M-SC3 Reporter activity ([…]), %, V9m reporter cells, […] compound, % induction of luciferase activity over basal level, read-out: V9M-SC3 Reporter activity (7.5 μM), %"}, "[15]": {"settings": "read-out: V503-3H9-7 reporter activity, % ([…]), V503 reporter cells, […] compound, % induction of luciferase activity over basal level, read-out: V503-3H9-7 reporter activity, % (2.5 μM)"}, "[16]": {"settings": "read-out: V503-3H9-7 reporter activity, % ([…]), V503 reporter cells, […] compound, % induction of luciferase activity over basal level, read-out: V503-3H9-7 reporter activity, % (7.5 μM)"}}, "note": "Read-outs that look alike come from different tables or passages of the source."}
{"molecule": "2-(butylsulfinyl)-4-phenyl-6-(thiophen-2-yl)thieno[2,3-b]pyridin-3-amine [SW033291]", "values": [{"measurement": "longer survival than vehicle control", "setting": "[1]; 5 mg/kg IP daily", "value": 48, "unit": "h"}, {"measurement": "day on which all mice were dead", "setting": "[1]; control day 8", "value": 10, "unit": "days"}]}
{"molecule": "COc1ccc(OC)c(N(CC(=O)Nc2ccc(C)cc2)S(=O)(=O)c2ccccc2)c1", "note": "[311333-86-5]", "values": [{"measurement": "activation at […]", "setting": "[2]; [5]", "value": 30, "unit": "%"}, {"measurement": "activation at […]", "setting": "[2]; [6]", "value": 53.4, "unit": "%"}, {"measurement": "inhibition at […]", "setting": "15-PGDH protein; [7]", "value": 34, "unit": "%"}, {"measurement": "activation at […]", "setting": "[3]; [8]", "value": 53, "unit": "%"}, {"measurement": "activation at […]", "setting": "[4]; [9]", "value": 102, "unit": "%"}, {"measurement": "activation at […]", "setting": "[4]; [10]", "value": 131, "unit": "%"}]}
{"molecule": "COc1ccc(NC(=O)CN(c2cc(OC)ccc2OC)S(=O)(=O)c2ccccc2)cc1", "note": "[333447-10-2]", "values": [{"measurement": "activation at […]", "setting": "[2]; [5]", "value": 7.54, "unit": "%"}, {"measurement": "activation at […]", "setting": "[2]; [6]", "value": 14.4, "unit": "%"}, {"measurement": "inhibition at […]", "setting": "15-PGDH protein; read-out: Enzyme inhibition % (2.5 μM)", "value": 27, "unit": "%"}, {"measurement": "inhibition at […]", "setting": "15-PGDH protein; [7]", "value": 46.5, "unit": "%"}, {"measurement": "percent induction of reporter activity over basal level at […]", "setting": "[3]; read-out: V9M-SC3 Reporter activity % ([…]), 7.5 μM, Table 18", "value": 10, "unit": "%"}, {"measurement": "activation at […]", "setting": "[3]; [8]", "value": -0.5, "unit": "%"}, {"measurement": "activation at […]", "setting": "[4]; [9]", "value": 76.9, "unit": "%"}, {"measurement": "activation at […]", "setting": "[4]; [10]", "value": 159, "unit": "%"}]}
{"molecule": "CCCC[S@](C)(O)c1sc2nc(-c3cccs3)cc(-c3ccccc3)c2c1N", "note": "[SW033291 isomer B]", "values": [{"measurement": "IC50", "setting": "15-PGDH protein; Table 2", "value": 0.00076, "unit": "µM"}]}
{"molecule": "COc1ccc(OC)c(N(CC(=O)Nc2ccncc2)S(=O)(=O)c2ccccc2)c1", "note": "[SW202938]", "values": [{"measurement": "activation at […]", "setting": "[2]; [11]", "value": 217, "unit": "%"}, {"measurement": "activation at […]", "setting": "[2]; [12]", "value": 241, "unit": "%"}, {"measurement": "Decrease PGE-2 (IL-1beta-A549, %)", "setting": "A549 cells", "value": "−47.55", "unit": "%"}, {"measurement": "IC50", "setting": "15-PGDH protein", "value": 2.67, "unit": "µM"}, {"measurement": "activation at […]", "setting": "[3]; [13]", "value": 155, "unit": "%"}, {"measurement": "activation at […]", "setting": "[3]; [14]", "value": 230, "unit": "%"}, {"measurement": "activation at […]", "setting": "[4]; [15]", "value": 309, "unit": "%"}, {"measurement": "activation at […]", "setting": "[4]; [16]", "value": 301, "unit": "%"}]}
{"molecule": "CCOC(=O)CN(c1cc(OC)ccc1OC)S(=O)(=O)c1ccccc1", "note": "[SW202951]", "values": [{"measurement": "activation at […]", "setting": "[2]; [11]", "value": 34.3, "unit": "%"}, {"measurement": "activation at […]", "setting": "[2]; [12]", "value": 47.6, "unit": "%"}, {"measurement": "Decrease PGE-2 (IL-1beta-A549, %)", "setting": "A549 cells", "value": "−1.01", "unit": "%"}, {"measurement": "activation at […]", "setting": "[3]; [13]", "value": 4.56, "unit": "%"}, {"measurement": "activation at […]", "setting": "[3]; [14]", "value": 17.7, "unit": "%"}, {"measurement": "activation at […]", "setting": "[4]; [15]", "value": 97.5, "unit": "%"}, {"measurement": "activation at […]", "setting": "[4]; [16]", "value": 131, "unit": "%"}]}
{"molecule": "COc1ccc(OC)c(N(CC(=O)Nc2ccc(C)nc2)S(=O)(=O)c2ccccc2)c1", "note": "[SW202988]", "values": [{"measurement": "activation at […]", "setting": "[2]; [11]", "value": 40.5, "unit": "%"}, {"measurement": "activation at […]", "setting": "[2]; [12]", "value": 125, "unit": "%"}, {"measurement": "Decrease PGE-2 (IL-1beta-A549, %)", "setting": "A549 cells", "value": "−16.79", "unit": "%"}, {"measurement": "IC50", "setting": "15-PGDH protein", "value": "~10", "unit": "µM"}, {"measurement": "activation at […]", "setting": "[3]; [13]", "value": 7.36, "unit": "%"}, {"measurement": "activation at […]", "setting": "[3]; [14]", "value": 54.4, "unit": "%"}, {"measurement": "activation at […]", "setting": "[4]; [15]", "value": 125, "unit": "%"}, {"measurement": "activation at […]", "setting": "[4]; [16]", "value": 258, "unit": "%"}]}
{"molecule": "COc1ccc(OC)c(N(CC(=O)Nc2cncnc2)S(=O)(=O)c2ccccc2)c1", "note": "[SW203683]", "values": [{"measurement": "activation at […]", "setting": "[2]; [11]", "value": 3.76, "unit": "%"}, {"measurement": "activation at […]", "setting": "[2]; [12]", "value": 210, "unit": "%"}, {"measurement": "Decrease PGE-2 (IL-1beta-A549, %)", "setting": "A549 cells", "value": "−3.41", "unit": "%"}, {"measurement": "IC50", "setting": "15-PGDH protein", "value": "~7", "unit": "µM"}, {"measurement": "activation at […]", "setting": "[3]; [13]", "value": 137, "unit": "%"}, {"measurement": "activation at […]", "setting": "[3]; [14]", "value": 191, "unit": "%"}, {"measurement": "activation at […]", "setting": "[4]; [15]", "value": 104, "unit": "%"}, {"measurement": "activation at […]", "setting": "[4]; [16]", "value": -41, "unit": "%"}]}
{"molecule": "COc1ccc(S(=O)(=O)N(CC(=O)N2CCOCC2)c2cc(OC)ccc2OC)cc1", "note": "[SW207997]", "values": [{"measurement": "activation at […]", "setting": "[2]; [11]", "value": 87.6, "unit": "%"}, {"measurement": "activation at […]", "setting": "[2]; [12]", "value": 94.1, "unit": "%"}, {"measurement": "rank of reduction in levels of PGE2 in the medium", "setting": "A549 cells; 100 nM drug", "value": "greatest reduction in levels of PGE2"}, {"measurement": "activation at […]", "setting": "[3]; [13]", "value": 59.5, "unit": "%"}, {"measurement": "activation at […]", "setting": "[3]; [14]", "value": 71, "unit": "%"}, {"measurement": "activation at […]", "setting": "[4]; [15]", "value": 149, "unit": "%"}, {"measurement": "activation at […]", "setting": "[4]; [16]", "value": 157, "unit": "%"}]}
{"molecule": "COc1ccc(S(=O)(=O)N(CC(=O)N2CCCCCC2)c2cc(OC)ccc2OC)cc1", "note": "[SW207998]", "values": [{"measurement": "activation at […]", "setting": "[2]; [11]", "value": 65.2, "unit": "%"}, {"measurement": "activation at […]", "setting": "[2]; [12]", "value": 77, "unit": "%"}, {"measurement": "rank of reduction in levels of PGE2 in the medium", "setting": "A549 cells; 100 nM drug", "value": "greatest reduction in levels of PGE2"}, {"measurement": "activation at […]", "setting": "[3]; [13]", "value": 53.4, "unit": "%"}, {"measurement": "activation at […]", "setting": "[3]; [14]", "value": 58.9, "unit": "%"}, {"measurement": "activation at […]", "setting": "[4]; [15]", "value": 144, "unit": "%"}, {"measurement": "activation at […]", "setting": "[4]; [16]", "value": 147, "unit": "%"}]}
{"molecule": "CCCC[S+]([O-])c1sc2nc(-c3nccs3)cc(-c3ccccc3)c2c1N", "note": "(stereo not drawn) [SW208066, 2-(butylsulfinyl)-4-phenyl-6-(thiazol-2-yl)thieno[2,3-b]pyridin-3-amine]", "values": [{"measurement": "rank of PGE2 level in the medium", "setting": "A549 cells; 100 nM drug, FIG. 44", "value": "highest levels of PGE2"}]}
